# Read-outs that look alike come from different tables or passages of the source.
# Legend:
# Ebolavirus (EBOV) = assay: organism not typed; assay type: cell-based; conditions: for IC50: read-out: EBOV IC50
# in vitro = conditions: human
# V-ATPase [1] = biological target: T1, V-ATPase (Homo sapiens, UniProt P27449+Q93050); assay: Acridine orange quenching in isolated HEK293 vesicles (proton-pumping function of V-ATPase); assay type: biochemical
# [2] = test system: endosomal acidification in HEK293 cells; assay: cells; assay type: cell-based; conditions: for IC50: read-out: HEK AO IC50
# [3] = test system: endosomal acidification in A549 cells; assay: Inhibition of cellular endosomal acidification, acridine orange (AO), A549 cells; assay type: cell-based
# [4] = Cytotoxicity (MTT), A549 cells; conditions: human
# V-ATPase [5] = biological target: T1, V-ATPase; assay type: biochemical
# Marburg virus (MARV) = assay type: cell-based
# [6] = test system: filoviral infection of primary human macrophages (PHM); assay type: cell-based, filovirus; conditions: read-out: PHM Antiviral IC50
# [7] = test system: cytosolic pH of HEK293 cells; assay: Cytosolic pH, BCECF-AM, HEK293 cells; assay type: cell-based; conditions: FIG. 1B
# A549 cells = assay: Cytotoxicity (MTT), A549 cells; conditions: read-out: A549 CC50, 72 h, MTT
# [8] = test system: endosomal pH of HEK293 cells; assay: Intracellular endosomal pH, FITC-dextran, HEK293 cells; assay type: cell-based; conditions: HEK293, 4 h, 1-3 μM, FIG. 1C
# T1 sequence (P27449 whole entry, looked up): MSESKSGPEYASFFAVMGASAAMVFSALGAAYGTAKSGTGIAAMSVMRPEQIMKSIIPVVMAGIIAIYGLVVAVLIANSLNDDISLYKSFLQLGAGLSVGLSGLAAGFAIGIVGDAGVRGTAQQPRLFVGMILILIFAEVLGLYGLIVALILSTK
# T1 sequence (Q93050 whole entry, looked up): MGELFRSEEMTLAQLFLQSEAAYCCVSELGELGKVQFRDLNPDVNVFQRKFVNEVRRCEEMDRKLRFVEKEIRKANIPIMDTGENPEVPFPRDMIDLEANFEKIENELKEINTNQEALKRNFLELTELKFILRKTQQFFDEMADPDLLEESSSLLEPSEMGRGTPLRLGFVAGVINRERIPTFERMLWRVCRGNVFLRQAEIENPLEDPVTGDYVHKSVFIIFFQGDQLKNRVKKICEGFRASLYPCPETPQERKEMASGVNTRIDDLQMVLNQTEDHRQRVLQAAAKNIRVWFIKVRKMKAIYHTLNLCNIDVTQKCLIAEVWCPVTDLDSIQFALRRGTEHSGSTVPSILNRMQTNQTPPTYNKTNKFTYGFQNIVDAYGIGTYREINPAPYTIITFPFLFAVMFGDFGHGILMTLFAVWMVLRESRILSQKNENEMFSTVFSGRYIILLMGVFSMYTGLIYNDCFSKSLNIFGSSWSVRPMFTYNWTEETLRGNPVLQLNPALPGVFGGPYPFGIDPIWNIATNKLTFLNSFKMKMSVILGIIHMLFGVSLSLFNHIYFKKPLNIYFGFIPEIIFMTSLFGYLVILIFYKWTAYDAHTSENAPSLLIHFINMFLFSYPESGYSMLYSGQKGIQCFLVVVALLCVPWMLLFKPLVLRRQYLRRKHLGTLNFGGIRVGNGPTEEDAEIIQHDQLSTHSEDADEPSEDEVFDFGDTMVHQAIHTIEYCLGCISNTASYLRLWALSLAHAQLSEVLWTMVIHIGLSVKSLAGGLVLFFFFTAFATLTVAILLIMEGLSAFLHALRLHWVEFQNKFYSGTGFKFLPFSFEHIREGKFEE
Structure (SMILES),IC50 (Ebolavirus (EBOV)),CC50 (in vitro),IC50 [2],IC50 [3],CC50 at 72 h [4],IC50 (Ebolavirus (EBOV); HeLa),"IC50 ([2]; Homo sapiens, HEK293, 4 h)","inhibition of ATP hydrolysis, in words (V-ATPase [5])",other results
"COc1cc2c(O)c3c(c(-c4ccc5c(c4)OCO5)c2cc1OC)C(=O)N(/N=C/c1cccnc1)C3 [Compound 3c, (E)-9-(benzo[d][1,3]dioxol-5-yl)-4-hydroxy-6,7-dimethoxy-2-((pyridin-3-ylmethylene)amino)-2,3-dihydro-1H-benzo[f]isoindol-1-one]",4480 ± 467 nM,49900 ± 15900 nM,8710 ± 769 nM,11600 nM,50100 ± 27700 nM,–,–,–,times less effective than diphyllin (AO quenching) (V-ATPase [1]): 2 times
"C#CCOc1c2c(c(-c3ccc4c(c3)OCO4)c3cc(OC)c(OC)cc13)C(=O)OC2 [Compound 2d, 9-(benzo[d][1,3]dioxol-5-yl)-6,7-dimethoxy-4-(prop-2-yn-1-yloxy)naphtho[2,3-c]furan-1(3H)-one]",–,2040 nM,–,–,–,175 ± 21.7 nM,263 ± 46.6 nM,–,–
"COc1cc2c(OC)c3c(c(-c4ccc5c(c4)OCO5)c2cc1OC)C(=O)OC3 [Compound 2b, 9-(benzo[d][1,3]dioxol-5-yl)-4,6,7-trimethoxynaphtho[2,3-c]furan-1(3H)-one]",171 ± 40.2 nM,5730 ± 841 nM,265 ± 58.6 nM,58.2 ± 8.76 nM,> 100000 nM,–,–,inhibited ATP hydrolysis to a similar extent,–
"CCOC(=O)CN1CCN(CCCOc2c3c(c(-c4ccc5c(c4)OCO5)c4cc(OC)c(OC)cc24)C(=O)OC3)CC1 [Compound 2h, ethyl 2-(4-(3-((9-(benzo[d][1,3]dioxol-5-yl)-6,7-dimethoxy-1-oxo-1,3-dihydronaphtho[2,3-c]furan-4-yl)oxy)propyl)piperazin-1-yl)acetate]",132 ± 32.3 nM,–,172 ± 40.6 nM,101 ± 13.8 nM,> 100000 nM,–,–,inhibited ATP hydrolysis to a similar extent,IC50 (Marburg virus (MARV)): 81.6 ± 28.7 nM; IC50 [6]: 256 nM
"C#CCCCOc1c2c(c(-c3ccc4c(c3)OCO4)c3cc(OC)c(OC)cc13)C(=O)OC2 [Compound 2e, 9-(benzo[d][1,3]dioxol-5-yl)-6,7-dimethoxy-4-(pent-4-yn-1-yloxy)naphtho[2,3-c]furan-1(3H)-one]",73.2 ± 11.9 nM,–,102 ± 19 nM,84.8 ± 11.9 nM,> 100000 nM,–,–,inhibited ATP hydrolysis to a similar extent,IC50 (Marburg virus (MARV)): 402 ± 45.9 nM; times better activity than Bafilomycin A1 (proton pumping activity of V-ATPase) (V-ATPase [1]): 2 times; times better activity than diphyllin (proton pumping activity of V-ATPase) (V-ATPase [1]): 17 times; IC50 [6]: 240 nM
"CCOc1c2c(c(-c3ccc4c(c3)OCO4)c3cc(OC)c(OC)cc13)C(=O)OC2 [Compound 2c, 9-(benzo[d][1,3]dioxol-5-yl)-4-ethoxy-6,7-dimethoxynaphtho[2,3-c]furan-1(3H)-one]",112 ± 14.7 nM,2380 nM,254 ± 49 nM,52.4 ± 19.3 nM,77400 ± 11000 nM,–,–,inhibited ATP hydrolysis to a similar extent,–
"COc1cc2c(OC(C)=O)c3c(c(-c4ccc5c(c4)OCO5)c2cc1OC)C(=O)N(CCO)C3=O [Compound 1e, 9-(benzo[d][1,3]dioxol-5-yl)-2-(2-hydroxyethyl)-6,7-dimethoxy-1,3-dioxo-2,3-dihydro-1H-benzo[f]isoindol-4-yl acetate]",–,–,–,–,–,5400 ± 2920 nM,> 10000 nM,–,"active in screen for inhibition of ebolavirus infection (Ebolavirus (EBOV)): active; effect on endosomal acidification (AO fluorescence ratio), in words [2]: did not cause a significant change in the fluorescence ratio"
"COc1cc2c(OCCCN3CCOCC3)c3c(c(-c4ccc5c(c4)OCO5)c2cc1OC)C(=O)OC3 [Compound 2g, 9-(benzo[d][1,3]dioxol-5-yl)-6,7-dimethoxy-4-(3-morpholinopropoxy)naphtho[2,3-c]furan-1(3H)-one]",107 ± 23.7 nM,–,74.3 ± 23.9 nM,56.1 ± 15.9 nM,> 100000 nM,–,–,inhibited ATP hydrolysis to a similar extent,IC50 (Marburg virus (MARV)): 135 ± 11.4 nM; times better activity than diphyllin (proton pumping activity of V-ATPase) (V-ATPase [1]): 7 times; IC50 [6]: 57.7 ± 8.6 nM
"COc1cc2c(OCCCC#N)c3c(c(-c4ccc5c(c4)OCO5)c2cc1OC)C(=O)OC3 [Compound 2f, 4-((9-(benzo[d][1,3]dioxol-5-yl)-6,7-dimethoxy-1-oxo-1,3-dihydronaphtho[2,3-c]furan-4-yl)oxy)butanenitrile]",–,3310 ± 740 nM,–,–,–,93.1 ± 26.8 nM,98.7 ± 29.5 nM,–,–
"COc1cc2c(O)c3c(c(-c4ccc5c(c4)OCO5)c2cc1OC)C(=O)N(N)C3 [Compound 3a, 2-amino-9-(benzo[d][1,3]dioxol-5-yl)-4-hydroxy-6,7-dimethoxy-2,3-dihydro-1H-benzo[f]isoindol-1-one]",–,48900 ± 3610 nM,–,–,28700 ± 16600 nM,3940 ± 604 nM,9060 ± 893 nM,–,"effect on endosomal acidification (AO fluorescence ratio), in words [2]: moderately inhibited acidification; IC50 ([3]; Homo sapiens): 8110 ± 670 nM"
"COc1cc2c(O)c3c(c(-c4ccc5c(c4)OCO5)c2cc1OC)C(=O)N(/N=C/c1ccccc1)C3 [Compound 3b, (E)-9-(benzo[d][1,3]dioxol-5-yl)-2-(benzylideneamino)-4-hydroxy-6,7-dimethoxy-2,3-dihydro-1H-benzo[f]isoindol-1-one]",–,–,–,–,–,6630 ± 437 nM,> 10000 nM,–,–
"COc1cc2c(OCCCN3CCN(CCO)CC3)c3c(c(-c4ccc5c(c4)OCO5)c2cc1OC)C(=O)OC3 [Compound 2i, 9-(benzo[d][1,3]dioxol-5-yl)-4-(3-(4-(2-hydroxyethyl)piperazin-1-yl)propoxy)-6,7-dimethoxynaphtho[2,3-c]furan-1(3H)-one]",76.2 ± 14.6 nM,–,104 ± 21.2 nM,–,–,–,–,–,–
"CO/C1=C\C(C)=C\[C@@H](C)[C@@H](O)[C@@H](C)C/C(C)=C/C=C/[C@H](OC)[C@@H]([C@@H](C)[C@@H](O)[C@H](C)[C@@]2(O)C[C@@H](O)[C@H](C)[C@@H](C(C)C)O2)OC1=O [Baf A1, bafilomycin A1, reference compound]",14.9 ± 8.93 nM,–,40.5 ± 3.31 nM,21.3 ± 2.55 nM,–,–,–,–,CC50 (HEK293 cells): 320 ± 42 nM; change in cytosolic pH compared to the vehicle treated control [7]: no significant change; CC50 (A549 cells): 479 ± 266 nM
"COc1cc2c(O)c3c(c(-c4ccc5c(c4)OCO5)c2cc1OC)C(=O)N(/N=C/c1ccc(Cl)cc1)C3 [Compound 3d, (E)-9-(benzo[d][1,3]dioxol-5-yl)-2-((4-chlorobenzylidene)amino)-4-hydroxy-6,7-dimethoxy-2,3-dihydro-1H-benzo[f]isoindol-1-one]",1170 ± 518 nM,28400 ± 2710 nM,9930 ± 140 nM,8440 ± 367 nM,78000 ± 26400 nM,–,–,–,times less effective than diphyllin (AO quenching) (V-ATPase [1]): 4 times
"COc1cc2c(O)c3c(c(-c4ccc5c(c4)OCO5)c2cc1OC)C(=O)OC3 [Compound 2a, 9-(benzo[d][1,3]dioxol-5-yl)-4-hydroxy-6,7-dimethoxynaphtho[2,3-c]furan-1(3H)-one, reference compound]",678 ± 161 nM,–,476 ± 60.1 nM,149 ± 20.5 nM,50100 ± 15500 nM,–,–,inhibited ATP hydrolysis to a similar extent,IC50 (Marburg virus (MARV)): 1770 ± 80 nM; times less potent than bafilomycin A1 (V-ATPase-mediated fluorescent quenching) (V-ATPase [1]): about 7.5 times; change in cytosolic pH compared to the vehicle treated control [7]: no significant change; endosomal pH after treatment [8]: ~7 pH
"COc1cc2c(O)c3c(c(-c4ccc5c(c4)OCO5)c2cc1OC)C(=O)N(/N=C/c1ccc(C#N)cc1)C3 [Compound 3g, (E)-4-(((9-(benzo[d][1,3]dioxol-5-yl)-4-hydroxy-6,7-dimethoxy-1-oxo-1,3-dihydro-2H-benzo[f]isoindol-2-yl)imino)methyl)benzonitrile]",–,–,–,–,–,1690 ± 233 nM,> 10000 nM,–,–
"COc1cc2c(O)c3c(c(-c4ccc5c(c4)OCO5)c2cc1OC)C(=O)N(/N=C/c1c(F)c(F)c(F)c(F)c1F)C3 [Compound 3h, (E)-9-(benzo[d][1,3]dioxol-5-yl)-4-hydroxy-6,7-dimethoxy-2-(((perfluorophenyl)methylene)amino)-2,3-dihydro-1H-benzo[f]isoindol-1-one]",–,–,–,–,–,8740 ± 2180 nM,> 10000 nM,–,–

# Source: patent publication US11542257B2, “Arylnaphthalene compounds as vacuolar-ATPase inhibitors and the use thereof” (priority 2018, dated 2023)
